Measured values reported in patent US12331044B2, “Inhibitors of histone deacetylase useful for the treatment or prevention of HIV infection” (Merck Sharp & Dohme LLC, priority 2018, dated 2025).
Read-outs that look alike come from different tables or passages of the source.

Key:
HDAC6 = HDAC6 (Homo sapiens (Human), UniProt Q9UBN7)
human HDAC8 = human HDAC8 (Homo sapiens (Human), UniProt Q9BY41); experiment: HDAC8 inhibition assay (modified FLUOR DE LYS, 384-well); assay type: biochemical; settings: […] enzyme, 200 μM substrate BML-KI178, 3 h pre-incubation; read-out: HDAC8 IC50
human HDAC1 = human HDAC1 (Homo sapiens (Human), UniProt Q13547)
KARN cells (Jurkat 2C4) = experiment: cells; settings: Homo sapiens
[1] = target: human HDAC3/SMRT heterodimer (Homo sapiens (Human), UniProt O15379)
human HDAC2 = human HDAC2 (Homo sapiens (Human), UniProt Q92769); experiment: HDAC2 inhibition assay (modified FLUOR DE LYS, 384-well); assay type: biochemical; settings: […] enzyme, 40 μM substrate BML-KI104, 3 h pre-incubation; read-out: HDAC2 IC50
[2] = read-out: Karn EC50 nM 0.1% NHS, 0.1% normal human serum, luciferase induction, 2 μM SAHA = 100%
[3] = read-out: Karn EC50 nM 5% NHS, 5% normal human serum, luciferase induction, 2 μM SAHA = 100%

Sequence of human HDAC8 (Q9BY41 whole entry): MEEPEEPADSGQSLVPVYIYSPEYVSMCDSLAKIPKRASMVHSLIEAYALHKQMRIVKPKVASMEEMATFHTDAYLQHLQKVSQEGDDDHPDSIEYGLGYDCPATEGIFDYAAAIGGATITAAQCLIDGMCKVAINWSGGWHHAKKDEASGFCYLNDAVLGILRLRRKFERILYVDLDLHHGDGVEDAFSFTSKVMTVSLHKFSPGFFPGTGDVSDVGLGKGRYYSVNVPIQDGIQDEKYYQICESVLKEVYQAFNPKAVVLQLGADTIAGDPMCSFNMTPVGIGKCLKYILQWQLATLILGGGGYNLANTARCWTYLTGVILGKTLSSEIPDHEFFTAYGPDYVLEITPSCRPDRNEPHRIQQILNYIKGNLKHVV
Sequence of human HDAC2 (Q92769 whole entry): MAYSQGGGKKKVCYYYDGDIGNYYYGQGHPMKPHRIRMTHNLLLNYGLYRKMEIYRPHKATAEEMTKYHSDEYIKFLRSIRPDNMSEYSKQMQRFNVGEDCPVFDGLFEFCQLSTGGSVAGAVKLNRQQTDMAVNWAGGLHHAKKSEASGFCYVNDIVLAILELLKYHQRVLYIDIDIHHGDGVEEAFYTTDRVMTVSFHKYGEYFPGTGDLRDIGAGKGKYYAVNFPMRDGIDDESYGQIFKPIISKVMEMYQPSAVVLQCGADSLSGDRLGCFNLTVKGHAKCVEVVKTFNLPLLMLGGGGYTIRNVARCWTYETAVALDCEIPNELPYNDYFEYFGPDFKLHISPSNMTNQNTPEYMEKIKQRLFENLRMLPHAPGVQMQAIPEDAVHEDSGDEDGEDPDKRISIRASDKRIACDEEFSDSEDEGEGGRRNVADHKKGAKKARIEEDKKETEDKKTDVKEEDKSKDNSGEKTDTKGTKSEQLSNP
Sequence of human HDAC3/SMRT heterodimer (O15379 whole entry): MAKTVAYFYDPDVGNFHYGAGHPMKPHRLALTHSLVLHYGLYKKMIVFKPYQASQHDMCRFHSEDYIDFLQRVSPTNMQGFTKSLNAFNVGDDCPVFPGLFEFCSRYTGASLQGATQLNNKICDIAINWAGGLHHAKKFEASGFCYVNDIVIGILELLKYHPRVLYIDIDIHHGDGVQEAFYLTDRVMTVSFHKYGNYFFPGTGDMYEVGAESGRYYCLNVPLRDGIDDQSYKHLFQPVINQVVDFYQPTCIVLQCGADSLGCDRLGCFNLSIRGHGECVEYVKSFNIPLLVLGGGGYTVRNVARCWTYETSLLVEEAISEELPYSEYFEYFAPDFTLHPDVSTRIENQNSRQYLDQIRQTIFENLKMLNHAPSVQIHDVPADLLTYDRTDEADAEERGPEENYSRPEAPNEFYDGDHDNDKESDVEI
Sequence of human HDAC3/SMRT heterodimer (Q9Y618 1-899 partner): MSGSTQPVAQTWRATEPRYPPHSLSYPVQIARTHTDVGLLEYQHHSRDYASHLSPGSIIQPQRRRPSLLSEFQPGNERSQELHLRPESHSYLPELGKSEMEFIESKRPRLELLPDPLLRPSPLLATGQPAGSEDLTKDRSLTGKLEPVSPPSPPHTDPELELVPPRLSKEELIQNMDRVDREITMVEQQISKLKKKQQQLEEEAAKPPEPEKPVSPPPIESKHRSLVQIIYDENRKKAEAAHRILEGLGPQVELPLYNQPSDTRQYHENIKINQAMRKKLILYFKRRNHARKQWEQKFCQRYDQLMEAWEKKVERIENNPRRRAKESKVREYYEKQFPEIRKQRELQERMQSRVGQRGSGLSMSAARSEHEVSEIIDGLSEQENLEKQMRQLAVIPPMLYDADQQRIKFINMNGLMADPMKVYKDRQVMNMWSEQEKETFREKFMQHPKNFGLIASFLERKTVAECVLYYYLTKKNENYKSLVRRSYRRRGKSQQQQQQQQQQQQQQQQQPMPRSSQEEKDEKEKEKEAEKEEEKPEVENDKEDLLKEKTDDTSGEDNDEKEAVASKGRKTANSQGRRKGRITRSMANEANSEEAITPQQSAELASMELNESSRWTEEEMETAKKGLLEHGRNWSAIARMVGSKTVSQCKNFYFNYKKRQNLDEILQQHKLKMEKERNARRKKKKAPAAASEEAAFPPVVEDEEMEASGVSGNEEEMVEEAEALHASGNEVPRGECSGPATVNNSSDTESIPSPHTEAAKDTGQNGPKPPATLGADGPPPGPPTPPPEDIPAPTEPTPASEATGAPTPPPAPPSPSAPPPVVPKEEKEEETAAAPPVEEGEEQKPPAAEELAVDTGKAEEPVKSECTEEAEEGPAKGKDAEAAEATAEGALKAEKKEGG
Sequence of human HDAC1 (Q13547 whole entry): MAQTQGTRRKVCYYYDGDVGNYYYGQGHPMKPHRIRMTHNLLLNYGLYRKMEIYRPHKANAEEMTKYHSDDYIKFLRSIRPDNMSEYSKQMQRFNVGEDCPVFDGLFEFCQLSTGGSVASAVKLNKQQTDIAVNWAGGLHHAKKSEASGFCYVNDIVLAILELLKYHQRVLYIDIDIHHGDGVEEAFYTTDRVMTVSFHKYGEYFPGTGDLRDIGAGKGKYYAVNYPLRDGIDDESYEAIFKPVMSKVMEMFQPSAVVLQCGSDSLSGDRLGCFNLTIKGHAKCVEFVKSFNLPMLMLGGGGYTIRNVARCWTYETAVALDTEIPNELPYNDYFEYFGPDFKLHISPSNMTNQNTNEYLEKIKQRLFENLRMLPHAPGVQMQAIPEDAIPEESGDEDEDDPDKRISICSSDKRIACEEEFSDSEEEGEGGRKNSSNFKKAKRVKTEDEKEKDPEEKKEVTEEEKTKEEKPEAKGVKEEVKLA
Sequence of HDAC6 (Q9UBN7 whole entry): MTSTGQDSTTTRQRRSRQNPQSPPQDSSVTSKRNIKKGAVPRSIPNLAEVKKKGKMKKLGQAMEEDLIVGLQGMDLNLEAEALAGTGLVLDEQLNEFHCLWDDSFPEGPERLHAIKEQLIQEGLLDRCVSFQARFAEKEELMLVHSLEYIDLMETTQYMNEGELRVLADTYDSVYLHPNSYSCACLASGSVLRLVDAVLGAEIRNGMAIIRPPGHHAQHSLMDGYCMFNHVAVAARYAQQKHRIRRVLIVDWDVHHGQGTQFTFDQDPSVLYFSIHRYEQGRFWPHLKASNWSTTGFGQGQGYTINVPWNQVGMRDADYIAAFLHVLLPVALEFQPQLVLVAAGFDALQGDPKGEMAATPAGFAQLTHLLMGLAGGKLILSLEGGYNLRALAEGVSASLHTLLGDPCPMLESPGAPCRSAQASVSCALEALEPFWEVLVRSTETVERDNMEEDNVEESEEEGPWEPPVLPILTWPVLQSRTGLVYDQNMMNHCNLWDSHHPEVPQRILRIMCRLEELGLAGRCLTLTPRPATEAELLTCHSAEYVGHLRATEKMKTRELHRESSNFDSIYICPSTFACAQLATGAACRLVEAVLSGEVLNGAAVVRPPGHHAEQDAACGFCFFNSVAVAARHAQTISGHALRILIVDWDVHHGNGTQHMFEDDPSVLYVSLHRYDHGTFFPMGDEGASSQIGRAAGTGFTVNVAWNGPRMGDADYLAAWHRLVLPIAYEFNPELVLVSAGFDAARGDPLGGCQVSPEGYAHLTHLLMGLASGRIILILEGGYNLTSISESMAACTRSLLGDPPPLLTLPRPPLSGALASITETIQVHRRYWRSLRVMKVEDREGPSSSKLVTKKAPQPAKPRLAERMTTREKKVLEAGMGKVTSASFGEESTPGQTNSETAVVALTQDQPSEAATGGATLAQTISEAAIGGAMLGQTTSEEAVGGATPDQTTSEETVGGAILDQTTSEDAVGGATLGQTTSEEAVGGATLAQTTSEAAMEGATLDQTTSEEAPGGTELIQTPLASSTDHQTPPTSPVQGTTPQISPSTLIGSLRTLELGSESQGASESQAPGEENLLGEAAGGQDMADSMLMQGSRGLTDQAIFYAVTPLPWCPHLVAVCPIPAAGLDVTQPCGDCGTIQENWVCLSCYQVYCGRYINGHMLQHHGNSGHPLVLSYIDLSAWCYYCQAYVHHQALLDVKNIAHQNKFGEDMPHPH

Row | Structure (SMILES) | IC50 (HDAC6) [nM] | IC50 (human HDAC8) [nM] | IC50 (human HDAC1) [nM] | EC50 (KARN cells (Jurkat 2C4); [2]) [nM] | EC50 (KARN cells (Jurkat 2C4); [3]) [nM] | IC50 [1] [nM] | IC50 (human HDAC2) [nM]
1 | COc1cc2nc(C)ccc2cc1-c1cnc([C@H](CCCCCC(=O)c2ncco2)NC(=O)C2COCCO2)[nH]1 (stereo partly drawn) [Example 173, N-[(1S)-1-[5-(7-methoxy-2-methylquinolin-6-yl)-1H-imidazol-2-yl]-7-(1,3-oxazol-2-yl)-7-oxoheptyl]-1,4-dioxane-2-carboxamide] | > 900 | 83 | 1.1 | 42 | 74 | 0.43 | 3.2
2 | COc1cc(-c2cnc([C@H](CCCCCC(=O)c3ncco3)NC(=O)C3CN(C)C3)[nH]2)c(F)cn1 [Example 178, N-[(1S)-1-[5-(5-fluoro-2-methoxypyridin-4-yl)-1H-imidazol-2-yl]-7-(1,3-oxazol-2-yl)-7-oxoheptyl]-1-methylazetidine-3-carboxamide] | 5300 | 83 | 2 | 80 | 1000 | 1.5 | 7.8
3 | CCN1CCC2(CC1)C[C@@H]2C(=O)N[C@@H](CCCCCC(=O)c1ncco1)c1ncc(-c2cc(OC)ncc2F)[nH]1 [Example 179, (1S)-6-ethyl-N-[(1S)-1-[5-(5-fluoro-2-methoxypyridin-4-yl)-1H-imidazol-2-yl]-7-(1,3-oxazol-2-yl)-7-oxoheptyl]-6-azaspiro[2.5]octane-1-carboxamide] | 4300 | 65 | 2.3 | 36 | 48 | 1.5 | 7.1
4 | CCN1CCC2(CC1)C[C@@H]2C(=O)N[C@@H](CCCCCC(=O)c1ncco1)c1ccn(-c2ccc3nn(C)cc3c2)n1 [Example 180, (1S)-6-ethyl-N-[(1S)-1-[1-(2-methyl-2H-indazol-5-yl)-1H-pyrazol-3-yl]-7-(1,3-oxazol-2-yl)-7-oxoheptyl]-6-azaspiro[2.5]octane-1-carboxamide] | > 900 | 170 | 0.9 | 200 | 190 | 1.5 | 5.2
5 | CN1CC(C(=O)N[C@@H](CCCCCC(=O)c2ncco2)c2ncc(-c3cc(OC4CCC4)ccc3F)[nH]2)C1 [Example 181, N-[(1S)-1-{5-[5-(cyclobutyloxy)-2-fluorophenyl]-1H-imidazol-2-yl}-7-(1,3-oxazol-2-yl)-7-oxoheptyl]-1-methylazetidine-3-carboxamide] | > 900 | 12 | 2.6 | 84 | 630 | 1 | 13
6 | CCN1CCC2(CC1)C[C@@H]2C(=O)N[C@@H](CCCCCC(=O)c1ncco1)c1ncc(-c2cc(OC3CCC3)ccc2F)[nH]1 [Example 182, (1S)-N-[(1S)-1-{5-[5-(cyclobutyloxy)-2-fluorophenyl]-1H-imidazol-2-yl}-7-(1,3-oxazol-2-yl)-7-oxoheptyl]-6-ethyl-6-azaspiro[2.5]octane-1-carboxamide] | > 900 | 5.6 | 2 | 41 | 190 | 0.79 | 9.1
7 | CCN1CCC2(CC1)C[C@@H]2C(=O)N[C@@](C)(CCCCCC(=O)c1ccon1)c1ncc(-c2ccccc2F)[nH]1 [Example 183, (S)-6-ethyl-N-((S)-2-(5-(2-fluorophenyl)-1H-imidazol-2-yl)-8-(isoxazol-3-yl)-8-oxooctan-2-yl)-6-azaspiro[2.5]octane-1-carboxamide] | 43000 | 550 | 0.56 | 37 | 37 | 0.48 | 2.3
8 | CN1CCC2(CC1)C[C@@H]2C(=O)N[C@@H](CCCCCC(=O)c1ncco1)c1[nH]c(-c2ccc(F)cc2)nc1C#N [Example 187, (S)-N-((S)-1-(4-cyano-2-(4-fluorophenyl)-1H-imidazol-5-yl)-7-(oxazol-2-yl)-7-oxoheptyl)-6-methyl-6-azaspiro[2.5]octane-1-carboxamide] | 45000 | 170 | 0.16 | 20 | 25 | 0.16 | 0.83
9 | CN1CCC2(CC1)C[C@@H]2C(=O)N[C@@H](CCCCCC(=O)c1ncco1)c1oc(-c2ccc(F)cc2)nc1C#N [Example 191, (S)-N-((S)-1-(4-cyano-2-(4-fluorophenyl)oxazol-5-yl)-7-(oxazol-2-yl)-7-oxoheptyl)-6-methyl-6-azaspiro[2.5]octane-1-carboxamide] | 45000 | 2300 | 2.5 | 110 | 100 | 1.9 | 12
10 | CN1CCC2(CC1)C[C@@H]2C(=O)N[C@@H](CCCCCC(=O)c1ccon1)c1nc(Cl)c(-c2ccc(F)cc2)[nH]1 [Example 195, (S)-N-((S)-1-(4-chloro-5-(4-fluorophenyl)-1H-imidazol-2-yl)-7-(isoxazol-3-yl)-7-oxoheptyl)-6-methyl-6-azaspiro[2.5]octane-1-carboxamide 2,3-dihydroxysuccinate] | 3100 | 9.6 | 0.14 | 1.4 | 1.9 | 0.046 | 0.32
